# Measurements taken from US20110160136A1, “POLYPHENOLS FOR THE TREATMENT OF CARTILAGE DISORDERS” (NESTEC S.A., priority 2008, published 2011).
# System: Articular cartilage explants
# Experiment: IL1β-induced glycosaminoglycan (GAG) release from 35S-labelled articular cartilage explants
# Assay type: cell-based, cows
# Conditions: polyphenolic compounds extracted e.g. from rosemary plants; qualitative statement
# Text: Articular cartilage explants are dissected out of the metacarpophalangeal joint of old cows (8-10 years). The skin is removed from the feet. The articulation is opened transversally. Intra articular ligaments are transected. Full thickness slices of cartilage are dissected out and put in a Petri dish containing DMEM supplemented with 20% FBS ([…]) and antibiotics (penicillin, streptomycin and gentamycin). Under the hood, disks of cartilage obtained by using a biopsy punch (6 mm in diameter) are distributed between the wells of a 96-wells plate containing 200 μl of medium (DMEM+20% FBS, 1% penicillin/streptomycin, 0.1% gentamycin) per well. Finally, plates are put into an incubator (37° C./5% CO2).
# Five days after their harvest, the explants are divided into several different treatment conditions:
# 1—negative control: the wells contain only culture medium. 2—positive stimulatory control: Interleukin 1β(IL1β) is added to the media at the concentration of 50 ng per ml. This cytokine is used to stimulate the catabolism and to induce inflammation. 3—positive inhibitory control: d15-PGJ2 (a peroxisome proliferator activated receptor γ agonist) and hymenialdisine are co-added, to the medium, with IL1β, to counteract the catabolic effect of this cytokine (Sabatini M, et al. (2002) Osteoarthritis Cartilage 10(9): 673-679; Scher J U, et al. (2005) Clin Immunol 114(2): 100-109; Boyault S, et al. (2001) Febs Letters 501(1): 24-30) 4, 5, 6, 7, 8 (if present)—tested compounds: these conditions test the effects of three concentrations of a polyphenol in presence of IL1β.
# The explants undergo these treatments for 72 hours in the incubator (37° C., 5% CO2). The following protocol is based on the disclosure of Campbell et al. (1984) Arch Biochem Biophys 234(1): 275-289 and Hascall V C, et al. (1983) ArchBiochem Biophys 224(1): 206-223 and was carried out 48 hours after the harvest of the explants,
# Sulphur 35 (35S) was added to the medium to be incorporated into newly synthesized polysulfated glycosaminoglycans within the extracellular matrix of the explants. After 72 hours, several washes were performed to eliminate the non-incorporated radioactivity. The explants were then treated for 72 hours, after which the supernatants were collected and the amount of radioactivity released in the medium was measured with a beta counter, as a marker of glycosaminoglycan (GAG) catabolism. The radioactivity present in the explants was also measured and used to normalize the amount of radioactivity released in the media. The radioactivity was expressed in DPM ([…]) and the GAG release was assessed by the following formula:
# GAG release=radioactivity in the supernatants/(radioactivity in the supernatants+radioactivity in the explants)
row,SMILES,anti-catabolic potential
1,COc1c(O)cc2oc(-c3ccc(O)c(O)c3)cc(=O)c2c1O [6-methoxy-luteolin],anti-catabolic potential
2,COc1c(OC2OC(COC(=O)C=Cc3ccc(O)cc3)C(O)C(O)C2O)cc2oc(-c3ccc(O)c(O)c3)cc(=O)c2c1O (stereo not shown) [6″-Coumaroylnepitrin],anti-catabolic potential
3,COc1cc(C=CC(=O)OCC2OC(Oc3cc4oc(-c5ccc(O)c(O)c5)cc(=O)c4c(O)c3OC)C(O)C(O)C2O)ccc1O (stereo not shown) [6″-Feruloylnepitrin],anti-catabolic potential
4,CC(C)c1cc2c(c(O)c1O)C13CCCC(C)(C)C1C(OC3=O)C2O (stereo not shown) [7-epirosmannol],anti-catabolic potential
5,CC(C)c1cc2c(c(O)c1O)[C@@]13CCCC(C)(C)[C@@H]1C[C@@H]2OC3=O [carnosol],anti-catabolic potential
6,COc1cc2oc(-c3ccc(O)cc3)cc(=O)c2c(O)c1OC [cirsimaritin],anti-catabolic potential
7,O=c1c(O)c(-c2ccc(O)cc2)oc2cc(O)cc(O)c12 [kaempferol],anti-catabolic potential
8,O=c1cc(-c2ccc(O)c(O)c2)oc2cc(O)cc(O)c12 [luteolin],anti-catabolic potential
9,CC(C)c1cc2c(c(O)c1O)[C@@]13CCCC(C)(C)[C@@H]1[C@H](OC3=O)[C@H]2O [rosmanol],anti-catabolic potential
10,O=C(/C=C/c1ccc(O)c(O)c1)O[C@H](Cc1ccc(O)c(O)c1)C(=O)O [rosmarinic acid],anti-catabolic potential
